Patent US10941158B2, “Pyrazole ACC inhibitors and uses thereof” (Gilead Apollo, LLC, priority 2015, dated 2021)
Converted amounts (≈) assume the structure as drawn. Like-named read-outs stand apart in the source and are kept apart here.

Assays:
fungal (fACC2) ACC2 = fungal (fACC2) ACC2 (UniProt Q00955); conditions: read-out: fACC2 IC50; fungal ACC2, ADP-Glo
Method: An exemplary procedure for the in vitro ACC inhibition assay, which can be used to determine the inhibitory action of compounds of the invention toward either human (hACC2) or fungal (fACC2) ACC2, follows. The ADP-Glo™ Kinase Assay kit from Promega was used. The ADP-Glo™ Kinase Assay is a luminescent ADP detection assay to measure enzymatic activity by quantifying the amount of ADP produced during an enzyme reaction. The assay is performed in two steps; first, after the enzyme reaction, an equal volume of ADP-Glo™ Reagent is added to terminate the reaction and deplete the remaining ATP. Second, the Kinase Detection Reagent is added to simultaneously convert ADP to ATP and allow the newly synthesized ATP to be measured using a luciferase/luciferin reaction. Luminescence can be correlated to ADP concentrations by using an ATP-to-ADP conversion curve. The detailed procedure is as follows. 50 μL of the compound being tested (600 μM in DMSO) was added to a 384-well dilution plate. The compound was diluted 1:3 in succession in DMSO for each row for 11 wells. 0.5 μL ACC2 working solution was added to 384-well white Optiplate assay plate. 0.5 μL diluted compound solution in each column from step 2 was added to assay plate, each row containing 2 replicates. […] The plates were incubated at room temperature for 15 minutes. 5 μL substrate working solution was added to each well to initiate reaction. Final ACC2 reaction concentrations consist of: 5 nM ACC2, 20 μM ATP, 20 μM acetyl-CoA, 12 mM NaHCO3, 0.01% Brij35, 2 mM DTT, 5% DMSO, test compound concentrations: 30 μM, 10 μM, 3.33 μM, 1.11 μM, 0.37 μM, 0.123 μM, 0.0411 μM, 0.0137 μM, 0.00457 μM, 0.00152 μM, and 0.00051 μM. Plates were incubated at room temperature for 60 minutes. 10 μL ADP glo reagent was added. Plates were incubated at room temperature for 40 minutes. 20 μL kinase detection reagent was added. Plates were incubated at room temperature for 40 minutes, and then read on a Perkin Elmer EnVision 2104 plate reader for luminescence as Relative Light Units (RLU).
Data for each concentration, as well as the positive and negative controls were averaged, and the standard deviation calculated. Percent inhibition was calculated by the formula: 100×(average negative control−compound)/(average negative control−average positive control). The IC50 for each compound was calculated by fitting the data with a non-linear regression equation: Y=Bottom+(Top-Bottom)/(1+10^((Log IC50−X)*Hill Slope)), where X is the log of compound concentration and Y is percent inhibition.
Compounds having an activity designated as “AA” provided an IC50 0.0006-0.003 μM; provided an “A” provided an IC50 0.003-0.01 μM; compounds having an activity designated as “B” provided an IC50 0.01-0.04 μM; and compounds having an activity designated as “C” provided an IC50>0.04 μM IC50. “NA” stands for “not assayed.”

C. krusei ATCC 6258 = assay: Anti-Fungal (Candida) Activity Assay, broth microtiter MIC; assay type: cell-based; conditions: Pichia kudriavzevii, read-out: MIC C. krusei ATCC 6258
Summary of the method: (§1)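 In CLSI M27-A3 microtiter plates, yeast from overnight agar culture is inoculated in RPMI 1640–MOPS at a standard-curve density. The MIC is the endpoint scored visually against growth control at 48 h.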

C. albicans ATCC 90028 = assay: as above; assay type: cell-based; conditions: read-out: MIC C. albicans ATCC 90028
Summary of the method: as §1

[1] = tested on: C. parapsilosis ATCC 22019; assay: as above; assay type: cell-based; conditions: Lodderomyces parapsilosis, read-out: MIC C. parapsilosis ATCC 22019
Summary of the method: as §1

human (hACC2) ACC2 = human (hACC2) ACC2 (Homo sapiens, UniProt O00763); assay: In vitro Acetyl-CoA Carboxylase (ACC) inhibition assay (ADP-Glo), hACC2; assay type: biochemical
Sequence of human (hACC2) ACC2 (O00763 whole entry): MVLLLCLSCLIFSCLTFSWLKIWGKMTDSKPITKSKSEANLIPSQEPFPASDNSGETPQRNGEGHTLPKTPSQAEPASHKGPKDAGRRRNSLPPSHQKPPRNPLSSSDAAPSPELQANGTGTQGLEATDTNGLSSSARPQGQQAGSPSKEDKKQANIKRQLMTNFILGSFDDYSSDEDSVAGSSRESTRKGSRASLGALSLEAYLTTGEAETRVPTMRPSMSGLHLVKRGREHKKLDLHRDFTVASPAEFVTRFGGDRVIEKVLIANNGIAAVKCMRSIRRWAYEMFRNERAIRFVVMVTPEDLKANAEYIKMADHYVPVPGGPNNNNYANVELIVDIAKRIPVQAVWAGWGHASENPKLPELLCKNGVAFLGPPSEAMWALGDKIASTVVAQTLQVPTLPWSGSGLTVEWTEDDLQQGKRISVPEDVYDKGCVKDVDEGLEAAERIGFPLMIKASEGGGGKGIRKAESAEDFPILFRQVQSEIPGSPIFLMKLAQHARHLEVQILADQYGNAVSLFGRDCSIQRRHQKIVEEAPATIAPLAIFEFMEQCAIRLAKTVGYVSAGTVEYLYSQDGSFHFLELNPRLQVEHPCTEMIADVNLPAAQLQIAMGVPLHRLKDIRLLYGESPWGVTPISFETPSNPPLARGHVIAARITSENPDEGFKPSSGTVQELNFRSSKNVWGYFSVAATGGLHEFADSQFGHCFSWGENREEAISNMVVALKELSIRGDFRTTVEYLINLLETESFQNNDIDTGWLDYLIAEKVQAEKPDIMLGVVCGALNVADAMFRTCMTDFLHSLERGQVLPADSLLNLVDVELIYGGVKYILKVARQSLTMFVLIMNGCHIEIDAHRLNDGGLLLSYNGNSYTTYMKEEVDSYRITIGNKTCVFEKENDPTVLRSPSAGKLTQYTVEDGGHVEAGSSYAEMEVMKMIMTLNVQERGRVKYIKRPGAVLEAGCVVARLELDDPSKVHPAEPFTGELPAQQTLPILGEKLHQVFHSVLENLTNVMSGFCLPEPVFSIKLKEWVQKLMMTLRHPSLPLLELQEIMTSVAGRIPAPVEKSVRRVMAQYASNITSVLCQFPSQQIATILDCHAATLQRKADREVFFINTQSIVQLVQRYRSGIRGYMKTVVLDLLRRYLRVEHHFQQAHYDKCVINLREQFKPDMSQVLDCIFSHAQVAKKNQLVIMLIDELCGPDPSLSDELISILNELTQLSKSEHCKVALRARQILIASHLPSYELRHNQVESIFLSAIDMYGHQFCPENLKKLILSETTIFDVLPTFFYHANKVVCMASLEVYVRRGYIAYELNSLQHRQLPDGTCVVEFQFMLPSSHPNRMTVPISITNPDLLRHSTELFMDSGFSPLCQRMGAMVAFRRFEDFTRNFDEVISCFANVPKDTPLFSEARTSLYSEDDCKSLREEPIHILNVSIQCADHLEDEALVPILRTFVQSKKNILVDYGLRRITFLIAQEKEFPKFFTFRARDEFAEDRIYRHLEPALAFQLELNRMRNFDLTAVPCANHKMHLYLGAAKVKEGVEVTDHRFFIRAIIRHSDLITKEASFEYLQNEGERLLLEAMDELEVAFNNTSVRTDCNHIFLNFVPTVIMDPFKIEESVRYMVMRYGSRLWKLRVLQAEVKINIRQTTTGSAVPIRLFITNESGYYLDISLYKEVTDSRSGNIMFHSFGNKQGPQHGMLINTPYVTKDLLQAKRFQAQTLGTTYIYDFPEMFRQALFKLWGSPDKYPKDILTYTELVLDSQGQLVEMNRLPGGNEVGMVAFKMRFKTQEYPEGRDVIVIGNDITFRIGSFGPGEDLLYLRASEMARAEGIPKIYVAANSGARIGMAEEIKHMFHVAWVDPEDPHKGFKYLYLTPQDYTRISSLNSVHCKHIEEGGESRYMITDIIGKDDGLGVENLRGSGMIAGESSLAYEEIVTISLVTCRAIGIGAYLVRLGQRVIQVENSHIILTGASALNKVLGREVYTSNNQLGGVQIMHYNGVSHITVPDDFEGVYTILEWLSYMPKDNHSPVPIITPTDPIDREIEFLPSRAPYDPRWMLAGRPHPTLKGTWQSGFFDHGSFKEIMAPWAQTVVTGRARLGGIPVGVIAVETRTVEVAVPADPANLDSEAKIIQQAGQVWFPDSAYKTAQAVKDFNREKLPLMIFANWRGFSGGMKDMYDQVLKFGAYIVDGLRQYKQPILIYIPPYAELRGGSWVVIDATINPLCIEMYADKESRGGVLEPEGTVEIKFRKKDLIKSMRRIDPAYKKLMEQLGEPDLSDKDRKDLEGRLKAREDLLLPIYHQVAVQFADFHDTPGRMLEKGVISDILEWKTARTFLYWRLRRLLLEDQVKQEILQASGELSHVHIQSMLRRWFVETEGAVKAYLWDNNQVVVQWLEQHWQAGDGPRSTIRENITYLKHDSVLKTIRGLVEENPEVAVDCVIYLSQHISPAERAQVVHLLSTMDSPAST
Method: The detailed procedure is as follows. […] 10 μL ADP glo reagent was added. […] 20 μL kinase detection reagent was added.
“NA” stands for “not assayed.”

[2] = tested on: Fusarium virguliforme (Fv); assay: Growth inhibition assay of fungal pathogens; assay type: cell-based; conditions: 48 h
Summary of the method: (§2)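 Liquid-culture assay in which test compounds are applied at three final concentrations (50, 10, 2 ppm or 2, 0.4, 0.08 ppm). Inoculum levels follow 48 h growth curves for each fungus. Growth is monitored by OD600 and by eye, and the 48 h values give % inhibition against DMSO.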

Septoria tritici (St) = assay: Growth inhibition assay of fungal pathogens; assay type: cell-based; conditions: for IC90: Zymoseptoria tritici, read-out: Concentration at 90% Inhibition St
Summary of the method: as §2

[3] = tested on: Phytophthora capsici (Pc); assay: Growth inhibition assay of fungal pathogens; assay type: cell-based; conditions: for IC90: Phytophthora capsici, read-out: Concentration at 90% Inhibition Pc
Summary of the method: as §2

Rhizoctonia solani (Rs) = assay: Growth inhibition assay of fungal pathogens; assay type: cell-based; conditions: 48 h, read-out: Concentration at 90% Inhibition Rs
Summary of the method: (§3)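 OD600 (blank-subtracted) plus visual scoring at 48 h, vs 2% DMSO ctrl → % inhibition. Final cpd 50/10/2 or 2/0.4/0.08 ppm. Fm/Bc/Dm spores in 17% V8 broth; Rs as 1.5 mm plugs in ¼ PDB.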

[4] = tested on: Collectotrichum graminicola (Cg); assay: Growth inhibition assay of fungal pathogens; assay type: cell-based; conditions: 48 h, read-out: Concentration at 90% Inhibition Cg
Summary of the method: as §2

Diplodia maydis (Dm) = assay: Growth inhibition assay of fungal pathogens; assay type: cell-based; conditions: Stenocarpella maydis, 48 h, read-out: Concentration at 90% Inhibition Dm
Summary of the method: as §3

[5] = tested on: Fusarium moniliforme (Fm); assay: Growth inhibition assay of fungal pathogens; assay type: cell-based; conditions: for IC90: Fusarium verticillioides, 48 h, read-out: Concentration at 90% Inhibition Fm
Summary of the method: as §3

Botrtyis cinerea (Bc) = assay: Growth inhibition assay of fungal pathogens; assay type: cell-based; conditions: 48 h, read-out: Concentration at 90% Inhibition Bc
Summary of the method: as §3

[6] = read-out: Concentration at 90% Inhibition Fv, Table 4a, 48 hours
[7] = read-out: Concentration at 90% Inhibition Fv, Table 4b, 48 hours
[8] = ATCC6258, 3 replicates, MIC recorded at 48 h
[9] = ATCC90028, 3 replicates, MIC recorded at 48 h
[10] = ATCC22019, 3 replicates, MIC recorded at 48 h
[11] = Table 4a, 48 hours, read-out: Concentration at 90% Inhibition Fv
[12] = Table 4b, 48 hours, read-out: Concentration at 90% Inhibition Fv

Sequence of fungal (fACC2) ACC2 (Q00955 whole entry): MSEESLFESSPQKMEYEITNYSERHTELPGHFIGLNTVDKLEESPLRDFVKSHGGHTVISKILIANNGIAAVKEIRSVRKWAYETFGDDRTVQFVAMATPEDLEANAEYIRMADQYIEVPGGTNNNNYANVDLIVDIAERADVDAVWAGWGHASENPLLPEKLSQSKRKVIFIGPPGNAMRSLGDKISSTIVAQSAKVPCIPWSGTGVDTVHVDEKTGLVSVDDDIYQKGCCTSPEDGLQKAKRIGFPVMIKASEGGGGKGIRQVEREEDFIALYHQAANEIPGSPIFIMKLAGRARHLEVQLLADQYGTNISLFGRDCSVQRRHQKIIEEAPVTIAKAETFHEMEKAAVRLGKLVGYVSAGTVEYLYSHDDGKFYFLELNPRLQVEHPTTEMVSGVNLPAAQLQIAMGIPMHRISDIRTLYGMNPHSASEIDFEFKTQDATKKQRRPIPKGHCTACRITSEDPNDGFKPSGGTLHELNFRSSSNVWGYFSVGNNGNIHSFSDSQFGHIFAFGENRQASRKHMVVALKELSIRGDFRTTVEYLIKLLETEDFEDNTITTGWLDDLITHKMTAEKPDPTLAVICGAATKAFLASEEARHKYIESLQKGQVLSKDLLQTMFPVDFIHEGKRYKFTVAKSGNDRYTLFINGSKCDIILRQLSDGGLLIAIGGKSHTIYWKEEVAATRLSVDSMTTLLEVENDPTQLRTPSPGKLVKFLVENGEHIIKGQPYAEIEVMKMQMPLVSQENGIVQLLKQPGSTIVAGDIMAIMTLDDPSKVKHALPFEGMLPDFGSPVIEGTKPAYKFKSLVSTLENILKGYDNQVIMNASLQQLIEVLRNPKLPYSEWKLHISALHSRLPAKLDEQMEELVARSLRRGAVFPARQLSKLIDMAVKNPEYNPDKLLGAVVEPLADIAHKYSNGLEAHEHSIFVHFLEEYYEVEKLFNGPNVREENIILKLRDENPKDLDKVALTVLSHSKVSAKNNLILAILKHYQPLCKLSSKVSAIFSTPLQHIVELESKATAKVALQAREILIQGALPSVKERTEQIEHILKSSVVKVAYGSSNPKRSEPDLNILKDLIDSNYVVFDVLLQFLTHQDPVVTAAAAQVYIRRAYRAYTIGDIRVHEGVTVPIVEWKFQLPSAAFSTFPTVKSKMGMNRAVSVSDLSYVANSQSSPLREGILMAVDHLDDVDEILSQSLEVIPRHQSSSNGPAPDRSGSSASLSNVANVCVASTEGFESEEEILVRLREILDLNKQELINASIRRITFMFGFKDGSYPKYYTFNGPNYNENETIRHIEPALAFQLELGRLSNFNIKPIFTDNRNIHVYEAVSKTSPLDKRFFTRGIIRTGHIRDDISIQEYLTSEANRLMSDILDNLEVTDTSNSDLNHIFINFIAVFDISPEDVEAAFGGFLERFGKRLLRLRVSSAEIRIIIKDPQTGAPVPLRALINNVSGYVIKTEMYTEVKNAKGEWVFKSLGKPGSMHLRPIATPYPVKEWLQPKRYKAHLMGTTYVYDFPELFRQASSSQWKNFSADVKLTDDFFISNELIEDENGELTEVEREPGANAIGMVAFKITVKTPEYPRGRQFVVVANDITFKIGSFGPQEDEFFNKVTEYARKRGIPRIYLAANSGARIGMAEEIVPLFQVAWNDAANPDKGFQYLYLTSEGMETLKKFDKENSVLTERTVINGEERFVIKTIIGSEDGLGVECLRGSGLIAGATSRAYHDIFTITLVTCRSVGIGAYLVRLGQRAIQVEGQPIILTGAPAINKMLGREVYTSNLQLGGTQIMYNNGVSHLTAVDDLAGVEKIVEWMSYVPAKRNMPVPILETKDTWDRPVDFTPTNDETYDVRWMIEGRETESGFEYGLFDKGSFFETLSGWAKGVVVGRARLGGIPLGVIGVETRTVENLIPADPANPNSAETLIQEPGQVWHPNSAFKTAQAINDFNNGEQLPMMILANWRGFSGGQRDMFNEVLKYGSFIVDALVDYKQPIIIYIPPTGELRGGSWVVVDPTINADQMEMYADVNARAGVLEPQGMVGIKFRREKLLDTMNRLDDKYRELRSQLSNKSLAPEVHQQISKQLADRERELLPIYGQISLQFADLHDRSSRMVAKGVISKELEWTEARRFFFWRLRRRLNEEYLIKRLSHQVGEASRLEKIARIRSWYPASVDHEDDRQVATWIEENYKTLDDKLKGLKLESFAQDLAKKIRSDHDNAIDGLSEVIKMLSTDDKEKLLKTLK

Row | Compound | IC50 (fungal (fACC2) ACC2) | MIC (C. krusei ATCC 6258; ATCC6258, 48 h) | MIC (C. albicans ATCC 90028; ATCC90028, 48 h) | MIC ([1]; ATCC22019, 48 h) | IC50 (human (hACC2) ACC2) | IC90 [2, 6] | IC90 [2, 7] | IC90 (Septoria tritici (St); 48 h, Table 4a) | IC90 (Septoria tritici (St); 48 h, Table 4b) | IC90 ([3]; 48 h, Table 4a) | IC90 ([3]; 48 h, Table 4b) | IC90 (Rhizoctonia solani (Rs); Table 4a) | IC90 (Rhizoctonia solani (Rs); Table 4b) | IC90 ([4]; Table 4a) | IC90 ([4]; Table 4b) | IC90 (Diplodia maydis (Dm); Table 4a) | IC90 (Diplodia maydis (Dm); Table 4b) | IC90 [5] | IC90 (Botrtyis cinerea (Bc); Table 4a) | IC90 (Botrtyis cinerea (Bc); Table 4b) | also measured
1 | COc1ccc(F)cc1[C@H](Cn1c(=O)n(C(C)(C)C(=O)NC(C)C)c(=O)c2c(C)c(-n3cccn3)sc21)OC[C@H](C)O [Compound I-38, 2-(1-((R)-2-(5-fluoro-2-methoxyphenyl)-2-((S)-2-hydroxy-propoxy)ethyl)-5-methyl-2,4-dioxo-6-(1H-pyrazol-1-yl)-1,4-dihydrothieno[2,3-d]pyrimidin-3(2H)-yl)-N-isopropyl-2-methylpropanamide] | 0.6 to 3 nM | 2.1 to 4 mg/L (≈ 3.49 to 6.65 µM) | > 4.1 mg/L | > 4.1 mg/L | 10 to 40 nM | 2 mg/L (≈ 3.32 µM) | 2 mg/L (≈ 3.32 µM) | > 50 mg/L | > 50 mg/L | > 50 mg/L | > 50 mg/L | 10 mg/L (≈ 16.6 µM) | 2 mg/L (≈ 3.32 µM) | > 50 mg/L | 10 mg/L (≈ 16.6 µM) | > 50 mg/L | 10 mg/L (≈ 16.6 µM) | 0.4 mg/L (≈ 0.665 µM) | 2 mg/L (≈ 3.32 µM) | 2 mg/L (≈ 3.32 µM) | Concentration at 90% Inhibition Fm ([5]; Table 4b, 48 hours): A (“A” provided a compound concentration of 0.4 ppm at 90% inhibition of fungal pathogens)
2 | COc1ccc(F)cc1[C@H](Cn1c(=O)n(C(C)(C)C(=O)NC(C)C)c(=O)c2c(C)c(-n3cccn3)sc21)OC[C@@H](C)O [Compound I-39, 2-(1-((R)-2-(5-fluoro-2-methoxyphenyl)-2-((R)-2-hydroxy-propoxy)ethyl)-5-methyl-2,4-dioxo-6-(1H-pyrazol-1-yl)-1,4-dihydrothieno[2,3-d]pyrimidin-3(2H)-yl)-N-isopropyl-2-methylpropanamide] | 0.6 to 3 nM | 2.1 to 4 mg/L (≈ 3.49 to 6.65 µM) | > 4.1 mg/L | > 4.1 mg/L | 3 to 10 nM | > 50 mg/L | 2 mg/L (≈ 3.32 µM) | > 50 mg/L | 10 mg/L (≈ 16.6 µM) | > 50 mg/L | 10 mg/L (≈ 16.6 µM) | 0.4 mg/L (≈ 0.665 µM) | 0.4 mg/L (≈ 0.665 µM) | 0.4 mg/L (≈ 0.665 µM) | 0.4 mg/L (≈ 0.665 µM) | 10 mg/L (≈ 16.6 µM) | 2 mg/L (≈ 3.32 µM) | 0.4 mg/L (≈ 0.665 µM) | 2 mg/L (≈ 3.32 µM) | 2 mg/L (≈ 3.32 µM) | Concentration at 90% Inhibition Fm ([5]; Table 4b, 48 hours): A (“A” provided a compound concentration of 0.4 ppm at 90% inhibition of fungal pathogens)
3 | COc1ccc(F)cc1[C@H](Cn1c(=O)n(C(C)(C)C(=O)N2CCCC2)c(=O)c2c(C)c(-n3cccn3)sc21)OC[C@H](C)O [Compound I-40, 1-((R)-2-(5-fluoro-2-methoxyphenyl)-2-((S)-2-hydroxy-propoxy)ethyl)-5-methyl-3-(2-methyl-1-oxo-1-(pyrrolidin-1-yl)propan-2-yl)-6-(1H-pyrazol-1-yl)thieno[2,3-d]pyrimidine-2,4(1H,3H)-dione] | 0.6 to 3 nM |  |  |  | 10 to 40 nM |  |  |  |  |  |  | 10 mg/L (≈ 16.3 µM) | 2 mg/L (≈ 3.26 µM) | > 50 mg/L | 10 mg/L (≈ 16.3 µM) | > 50 mg/L | > 50 mg/L |  | > 50 mg/L | 10 mg/L (≈ 16.3 µM) | MIC (C. krusei ATCC 6258; [8]): 0.25 to 1 mg/L (≈ 0.407 to 1.63 µM); MIC (C. albicans ATCC 90028; [9]): > 4.1 mg/L; MIC [1, 10]: 2.1 to 4 mg/L (≈ 3.42 to 6.52 µM); IC90 [2, 11]: > 50 mg/L; IC90 [2, 12]: 10 mg/L (≈ 16.3 µM); Concentration at 90% Inhibition St (Septoria tritici (St); Table 4b, 48 hours): D (“D” provided a compound concentration of >50 ppm at 90% inhibition of fungal pathogens); IC90 (Septoria tritici (St); Table 4a, 48 hours): > 50 mg/L; IC90 ([3]; Table 4a, 48 hours): > 50 mg/L; Concentration at 90% Inhibition Pc ([3]; Table 4b, 48 hours): D (“D” provided a compound concentration of >50 ppm at 90% inhibition of fungal pathogens); IC90 ([5]; Table 4a, 48 hours): 2 mg/L (≈ 3.26 µM); IC90 ([5]; Table 4b, 48 hours): 2 mg/L (≈ 3.26 µM)
4 | COc1ccc(F)cc1[C@H](Cn1c(=O)n(C(C)(C)C(=O)NC(C)C)c(=O)c2c(C)c(-n3cccn3)sc21)OCC(C)(C)O [Compound I-41, (R)-2-(1-(2-(5-fluoro-2-methoxyphenyl)-2-(2-hydroxy-2-methylpropoxy)ethyl)-5-methyl-2,4-dioxo-6-(1H-pyrazol-1-yl)-1,4-dihydro-thieno[2,3-d]pyrimidin-3(2H)-yl)-N-isopropyl-2-methylpropanamide] | 0.6 to 3 nM | > 4.1 mg/L | > 4.1 mg/L | > 4.1 mg/L | 3 to 10 nM | 0.4 mg/L (≈ 0.65 µM) | 0.4 mg/L (≈ 0.65 µM) | > 50 mg/L | 10 mg/L (≈ 16.2 µM) | > 50 mg/L | > 50 mg/L | 10 mg/L (≈ 16.2 µM) | 2 mg/L (≈ 3.25 µM) | 2 mg/L (≈ 3.25 µM) | 2 mg/L (≈ 3.25 µM) | 10 mg/L (≈ 16.2 µM) | 2 mg/L (≈ 3.25 µM) | 0.4 mg/L (≈ 0.65 µM) | 2 mg/L (≈ 3.25 µM) | 2 mg/L (≈ 3.25 µM) | Concentration at 90% Inhibition Fm ([5]; Table 4b, 48 hours): A (“A” provided a compound concentration of 0.4 ppm at 90% inhibition of fungal pathogens)
5 | COc1ccc(F)cc1[C@H](Cn1c(=O)n(C(C)(C)C(=O)N2CCCC2)c(=O)c2c(C)c(-n3cccn3)sc21)OCC(C)(C)O [Compound I-42, (R)-1-(2-(5-fluoro-2-methoxyphenyl)-2-(2-hydroxy-2-methylpropoxy)ethyl)-5-methyl-3-(2-methyl-1-oxo-1-(pyrrolidin-1-yl)propan-2-yl)-6-(1H-pyrazol-1-yl)thieno[2,3-d]pyrimidine-2,4(1H,3H)-dione] | 0.6 to 3 nM |  |  |  | 3 to 10 nM |  |  |  |  |  |  | 10 mg/L (≈ 15.9 µM) | 2 mg/L (≈ 3.19 µM) | > 50 mg/L | 10 mg/L (≈ 15.9 µM) | > 50 mg/L | 10 mg/L (≈ 15.9 µM) |  | > 50 mg/L | 10 mg/L (≈ 15.9 µM) | MIC (C. krusei ATCC 6258; [8]): 2.1 to 4 mg/L (≈ 3.35 to 6.37 µM); MIC (C. albicans ATCC 90028; [9]): 2.1 to 4 mg/L (≈ 3.35 to 6.37 µM); MIC [1, 10]: > 4.1 mg/L; IC90 [2, 11]: > 50 mg/L; IC90 [2, 12]: 10 mg/L (≈ 15.9 µM); Concentration at 90% Inhibition St (Septoria tritici (St); Table 4b, 48 hours): D (“D” provided a compound concentration of >50 ppm at 90% inhibition of fungal pathogens); IC90 (Septoria tritici (St); Table 4a, 48 hours): > 50 mg/L; IC90 ([3]; Table 4a, 48 hours): > 50 mg/L; Concentration at 90% Inhibition Pc ([3]; Table 4b, 48 hours): D (“D” provided a compound concentration of >50 ppm at 90% inhibition of fungal pathogens); IC90 ([5]; Table 4a, 48 hours): 0.4 mg/L (≈ 0.637 µM); IC90 ([5]; Table 4b, 48 hours): 0.4 mg/L (≈ 0.637 µM)
6 | COCCO[C@@H](Cn1c(=O)n(C(C)(C)C(=O)NC(C)C)c(=O)c2c(C)c(-n3cccn3)sc21)c1cc(F)ccc1OC [Compound I-43, (R)-2-(I-(2-(5-fluoro-2-methoxyphenyl)-2-(2-methoxy-ethoxy)ethyl)-5-methyl-2,4-dioxo-6-(1H-pyrazol-1-yl)-1,4-dihydrothieno[2,3-d]pyrimidin-3(2H)-yl)-N-isopropyl-2-methylpropanamide] | 0.6 to 3 nM | 0.25 to 1 mg/L (≈ 0.415 to 1.66 µM) | 1.1 to 2 mg/L (≈ 1.83 to 3.32 µM) | 2.1 to 4 mg/L (≈ 3.49 to 6.65 µM) | 10 to 40 nM | 2 mg/L (≈ 3.32 µM) | 2 mg/L (≈ 3.32 µM) | > 50 mg/L | > 50 mg/L | > 50 mg/L | > 50 mg/L | > 50 mg/L | 10 mg/L (≈ 16.6 µM) | > 50 mg/L | > 50 mg/L | > 50 mg/L | 10 mg/L (≈ 16.6 µM) | 2 mg/L (≈ 3.32 µM) | > 50 mg/L | 10 mg/L (≈ 16.6 µM) | Concentration at 90% Inhibition Fm ([5]; Table 4b, 48 hours): B (“B” provided a compound concentration of 2.0 ppm at 90% inhibition of fungal pathogens)
